# Several values for one entry are separate records, joined by “and”; a condition that tells them apart may be missing. Identical values can stand only once.
# Assays:
# Peregrin (Homo sapiens) = target: T1, Peregrin (Homo sapiens) (UniProt P55201); conditions: Compound concentration 20.0 uM, Protein concentration 2.0 uM, Result type QC Liability
# T1 sequence (whole entry): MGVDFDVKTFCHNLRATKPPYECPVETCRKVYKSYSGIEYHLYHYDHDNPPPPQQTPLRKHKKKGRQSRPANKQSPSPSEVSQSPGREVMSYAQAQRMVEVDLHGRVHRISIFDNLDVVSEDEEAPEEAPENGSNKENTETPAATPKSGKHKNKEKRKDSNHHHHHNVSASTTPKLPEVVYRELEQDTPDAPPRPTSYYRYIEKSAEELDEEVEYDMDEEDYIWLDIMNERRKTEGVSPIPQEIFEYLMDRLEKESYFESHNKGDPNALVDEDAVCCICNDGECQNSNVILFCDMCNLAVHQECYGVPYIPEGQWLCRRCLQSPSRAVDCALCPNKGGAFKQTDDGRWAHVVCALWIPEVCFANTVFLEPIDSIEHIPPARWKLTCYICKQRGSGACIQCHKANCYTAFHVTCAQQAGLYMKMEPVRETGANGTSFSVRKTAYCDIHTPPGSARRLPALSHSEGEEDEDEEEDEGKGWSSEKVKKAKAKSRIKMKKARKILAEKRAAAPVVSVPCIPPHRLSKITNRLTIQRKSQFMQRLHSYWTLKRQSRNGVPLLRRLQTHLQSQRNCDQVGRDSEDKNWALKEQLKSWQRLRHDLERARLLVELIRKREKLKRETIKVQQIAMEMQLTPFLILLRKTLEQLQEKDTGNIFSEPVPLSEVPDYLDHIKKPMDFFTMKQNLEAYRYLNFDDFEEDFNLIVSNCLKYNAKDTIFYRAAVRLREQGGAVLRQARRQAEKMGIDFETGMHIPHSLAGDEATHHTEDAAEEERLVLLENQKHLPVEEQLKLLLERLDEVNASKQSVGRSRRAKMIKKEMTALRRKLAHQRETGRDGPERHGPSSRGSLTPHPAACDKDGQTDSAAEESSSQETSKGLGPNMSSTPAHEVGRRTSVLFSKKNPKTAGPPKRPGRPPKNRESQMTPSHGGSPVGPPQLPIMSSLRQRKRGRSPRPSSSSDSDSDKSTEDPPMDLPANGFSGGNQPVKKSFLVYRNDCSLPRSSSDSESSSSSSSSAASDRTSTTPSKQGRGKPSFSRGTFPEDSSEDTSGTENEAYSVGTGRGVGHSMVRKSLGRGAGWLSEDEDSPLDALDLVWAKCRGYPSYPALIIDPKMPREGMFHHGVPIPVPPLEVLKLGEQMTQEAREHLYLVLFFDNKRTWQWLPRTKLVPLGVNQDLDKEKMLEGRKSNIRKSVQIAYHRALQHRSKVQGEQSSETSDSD
# [1] = target: Fibroblast growth factor receptor 3 (Homo sapiens) (UniProt P22607); conditions: Compound concentration 20.0 uM, Protein concentration 2.0 uM, Result type QC Liability
# Fibroblast growth factor receptor 3 (Homo sapiens), sequence (P22607 23-806 limits assumed): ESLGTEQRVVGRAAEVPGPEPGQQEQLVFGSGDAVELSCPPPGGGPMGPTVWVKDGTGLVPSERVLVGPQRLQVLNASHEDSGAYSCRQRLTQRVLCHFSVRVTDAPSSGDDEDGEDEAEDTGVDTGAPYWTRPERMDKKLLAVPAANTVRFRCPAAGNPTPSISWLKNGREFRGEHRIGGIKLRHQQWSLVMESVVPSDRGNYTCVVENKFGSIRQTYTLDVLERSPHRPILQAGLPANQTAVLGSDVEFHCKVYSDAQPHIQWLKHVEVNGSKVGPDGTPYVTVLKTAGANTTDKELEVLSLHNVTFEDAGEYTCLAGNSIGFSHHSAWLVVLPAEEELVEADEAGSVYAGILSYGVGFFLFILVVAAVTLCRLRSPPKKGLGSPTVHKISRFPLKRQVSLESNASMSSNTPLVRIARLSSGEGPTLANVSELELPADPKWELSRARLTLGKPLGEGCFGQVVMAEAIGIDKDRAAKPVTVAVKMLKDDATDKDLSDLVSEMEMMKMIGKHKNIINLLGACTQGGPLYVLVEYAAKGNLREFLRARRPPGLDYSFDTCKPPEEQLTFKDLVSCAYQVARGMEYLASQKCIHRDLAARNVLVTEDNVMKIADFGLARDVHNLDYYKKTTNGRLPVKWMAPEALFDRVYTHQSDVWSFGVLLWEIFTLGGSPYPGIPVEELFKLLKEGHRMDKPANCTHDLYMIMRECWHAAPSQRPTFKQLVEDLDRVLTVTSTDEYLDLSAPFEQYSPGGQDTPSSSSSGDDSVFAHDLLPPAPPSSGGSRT
# Description: Thermal Shift Assay. Domain: start/stop: P449-E759
SMILES,ΔTm (Peregrin (Homo sapiens)),ΔTm [1]
COc1cc(-c2cncc(-c3cnn(C4CCNCC4)c3)c2)cc(OC)c1OC,-0.73 °C,0.93 °C
CC(C)(O)CNC(=O)N1C(=O)N(c2cccc(C(F)(F)F)c2)C2=C(C(=O)CC2)[C@@H]1c1ccc(C#N)cc1,-2.73 °C,0.55 °C
COc1ccccc1N1CCN(c2ncnc3c2cnn3-c2ccccc2)CC1,-1.23 °C,0.51 °C
Cc1cc(=O)oc2cc(NC(=O)[C@H](Cc3ccc(I)cc3)NC(=O)[C@H]3N[C@@H]4CC[C@H]3C4)ccc12,-1.46 °C,0.37 °C
COCCN1CCN(CCn2ccc(Nc3ncc4c(n3)-c3c(nn(C)c3-c3ccccc3)C[C@H]4C)n2)CC1,-0.48 °C,3.58 °C
O=C1CCCc2[nH]c(-c3ccnc(NCC4CC4)c3)c(Nc3ccccc3)c21,-3.57 °C,0.77 °C
COc1cccc(-c2c(C)c(Cc3c(F)cccc3C(F)(F)F)c3n(c2=O)[C@@H]([C@@H](N)c2ccccc2)CS3)c1F,-4.1 °C,-2.84 °C
CN1CCN(c2ccc(Nc3ncc4cc5n(c4n3)C3(CCCCC3)CNC5=O)nc2)CC1,-1.56 °C,0.83 °C
CCCN1C(=O)c2ccc(Cl)cc2Nc2ncccc21,-3.34 °C,1.35 °C
CC[C@@H](C(=O)OC)n1c(=O)c2ccccc2n(Cc2cn(C)c3cccc(C)c23)c1=O,-3.31 °C,1.21 °C
Cc1cc(CN)cc(C)c1-c1ncn(C)c1-c1ccnc2cc(F)ccc12,-2.14 °C,0.85 °C
CCc1cc2c(cc1N1CCC(N3CCOCC3)CC1)C(C)(C)c1[nH]c3cc(C#N)ccc3c1C2=O,-1 °C,0.56 °C
O=C(O)c1cc2cc(Cc3cccnc3)ccc2o1,-2.16 °C,0.96 °C
COCCCS(=O)(=O)c1cc(C)c(-c2ccc(F)c3c2CC[C@H]3Oc2ccc3c(c2)OC[C@H]3CC(=O)O)c(C)c1,-4.61 °C,0.81 °C
O[C@]1(C(F)(F)F)CCCC[C@H]1Nc1ccc(F)cc1,0.24 °C,0.58 °C
C[C@H](CCC(=O)O)[C@H]1CC[C@H]2[C@@H]3CC[C@@H]4C[C@H](O)CC[C@]4(C)[C@H]3C[C@H](O)[C@]12C,-1.82 °C,0.63 °C
Cn1c(Nc2c(Cl)cccc2Cl)nc2ccc3nc[nH]c(=O)c3c21,-0.59 °C,1.31 °C
CCNC1=N[C@@H]2[C@@H](O)[C@H](O)[C@@H](CO)O[C@@H]2S1,0.02 °C,0.73 °C
CC(=O)O[C@H]1C(=O)[C@@]2(C)[C@H]([C@H](OC(=O)c3ccccc3)[C@]3(O)C[C@H](OC(=O)[C@H](O)[C@@H](NC(=O)c4ccccc4)c4ccccc4)C(C)=C1C3(C)C)[C@]1(OC(C)=O)CO[C@@H]1C[C@@H]2O,-2.68 °C,0.44 °C
COc1ccc2c(O[C@@H]3C[C@H]4C(=O)N[C@]5(C(=O)O)CC5/C=C\CCCCC[C@H](NC(=O)OC5CCCC5)C(=O)N4C3)cc(-c3csc(NC(=O)C(C)C)n3)nc2c1C (stereo not given in full),-1.17 °C [middle of 4 runs],1.07 °C [middle of 4 runs]

SMILES,ΔTm (Peregrin (Homo sapiens)),ΔTm [1]
CNC(=O)c1c(F)cccc1Nc1nc(Nc2cc3c(cc2OC)CCN3C(=O)CN(C)C)nc2[nH]ccc12,-2.03 °C,0.2 °C
CNc1[nH]c(Nc2ccc(C(=O)N3CCOCC3)cc2OC)nc2ncc(Cl)c1-2,-1.81 °C,0.62 °C
Cc1ccc(NC(=O)c2ccc3c(c2)OCCO3)cc1NC(=O)c1ccc2nc(OCCN3CCCC3)ccc2c1,-1.27 °C,0.47 °C
N#CN1CC[C@H](C(=O)Nc2nc3c(s2)CN(C(=O)CN=[N+]=[N-])CC3)C1,-1.51 °C,1.09 °C
Cc1cc(CN)cc(C)c1-c1ncn(C)c1-c1cncn1C,-1.81 °C,0.44 °C
CS(=O)(=O)c1cc(C2(NC(=O)c3cncc4c3cnn4-c3ccc(F)cc3)CC2)ccn1,-2.04 °C,0.85 °C
C=CC(=O)Nc1ccc2[nH]c(=O)n(C3CCN(Cc4ccc(-c5ccc6c(c5)NC(=O)CO6)cc4)CC3)c2c1,-0.12 °C,0.37 °C
Cn1cc(-c2cnc3ccc4ccc(CS(=O)(=O)NCc5ccccn5)cc4c(=O)c3c2)cn1,-1.66 °C,3.77 °C
COc1ccc(-c2c(-c3ccccc3)oc3ncnc(O[C@H](C)CCCCC(=O)O)c23)cc1,-6.64 °C,-0.48 °C
OCC1OC(n2cnc3cc(Cl)c(Cl)cc32)C(O)C1O (stereo not given),-1.16 °C,0.39 °C
O=C(O)/C=C/c1ccc(Cn2ccnc2)cc1,-2.72 °C,0.54 °C
COc1ccc(F)c(F)c1C(=O)c1cnc(NC2CCN(S(C)(=O)=O)CC2)nc1N,-0.92 °C,1.01 °C
Nc1nccc(-c2c(-c3ccc(F)cc3)ncn2C2CCCCC2)n1,-0.2 °C,0.92 °C
Cc1nc2cccnc2n2c(-c3cc(C(C)(C)O)ncc3Cl)nnc12,-3.02 °C,1.25 °C
CNC(=O)c1cccc(-c2ccc3c(N4CCOC[C@@H]4C)nc(N4CCOC[C@@H]4C)nc3n2)c1,-1.11 °C,0.5 °C
Cc1c(-c2c(F)cc(C(N)=O)c3[nH]c4c(c23)CC[C@H](C(C)(C)O)C4)cccc1-n1c(=O)c2cccc(F)c2n(C)c1=O,-3.49 °C,-3.27 °C
CC(C)(C)c1cnc(CSc2cnc(NC(=O)C3CCNCC3)s2)o1,-1.47 °C,0.5 °C
COc1ccc(CSc2nnc(-c3ccc4ncsc4c3)o2)cc1C(F)(F)F,-1.83 °C,-7.8 °C
Cc1cc(Cn2c(N3CC4(CNC4)C3)nc3cc(Cl)cc(N4CCN(C)CC4)c32)cc(C)c1F,-2.07 °C,1.32 °C
O=C(O)c1ccc(OCCCc2ccc(OCCCCOC3CCCCC3)cc2)c(C(=O)NC2CCCC(C(=O)O)C2)c1 (stereo not given),-4.19 °C,0.54 °C

SMILES,ΔTm (Peregrin (Homo sapiens)),ΔTm [1]
C[S+]([O-])c1ccc(-c2nc(-c3cccc(I)c3)c(-c3ccncc3)[nH]2)cc1 (stereo not given),-1.44 °C,-1.51 °C
CN1CCN(c2ccc(/C=C(\C#N)c3ccccc3Br)cc2)CC1,-2.48 °C,1.23 °C
CCS(=O)(=O)Nc1cccc(Oc2cncc(Nc3ccc(I)cc3F)c2C(N)=O)c1,-2.79 °C,1.17 °C
C=CC[C@@H]1/C=C(\C)C[C@H](C)C[C@H](OC)[C@H]2O[C@@](O)(C(=O)C(=O)N3CCCC[C@H]3C(=O)O[C@H](/C(C)=C/[C@@H]3CC[C@@H](O)[C@H](OC)C3)[C@H](C)[C@@H](O)CC1=O)[C@H](C)C[C@@H]2OC,-3.28 °C,0.4 °C
CCC(F)(F)c1cc(N2CCC(S(C)(=O)=O)CC2)nc2sc(C(N)=O)c(N)c12,-2.52 °C and -1.37 °C and -0.65 °C,0.83 °C and 0.75 °C and 1.17 °C
O=C(Nc1ccc(N2CCC(C(=O)N3CCOCC3)CC2)cc1)c1cnc(Oc2ccccc2)nc1,-2.41 °C,0.5 °C
CCOC(=O)N1CCC(CN(Cc2ccc(Cl)cc2)Cc2ccc([N+](=O)[O-])s2)C1 (stereo not given),-2.07 °C,0.35 °C
Cc1ccc2c(N)c(C(=O)NC3CCc4cc(N5CC6CCC(C5)N6)ccc4C3)sc2n1 (stereo not given),-1.37 °C,0.55 °C
CCS(=O)(=O)c1cc2cc(C[C@@](O)(CC(C)(C)c3ccc(F)cc3C(N)=O)C(F)(F)F)[nH]c2cn1,-2.1 °C and -0.15 °C,0.69 °C and 0.88 °C
C=CC(=O)Nc1cccc(C)c1Nc1ncc2cc(-c3c(Cl)c(OC)cc(OC)c3Cl)ccc2n1,-0.73 °C,1.71 °C
CCN1C(=O)/C(=C(\NC2CCN(C)CC2)c2ccc3c(c2)OCO3)c2cc(C(C)=O)ccc21,-1.89 °C,1.13 °C
Cn1cc(NC(=O)c2ccc3nc4n(c3c2)CCCNC4=O)nc1C(=O)NC1CCCC1,-0.88 °C,1.76 °C
CCC(C(=O)Nc1ccc(-c2cc3ccccc3s2)c(C(N)=O)c1)c1nccs1 (stereo not given),-1.09 °C,0.48 °C
CC(C)Oc1ccc(Cc2ccc(NC3=NCCN3)cc2)cc1,-3.24 °C,0.39 °C
NC(=O)C1CCCc2c1[nH]c1ccc(Cl)cc21 (stereo not given),-0.12 °C,0.98 °C
Cc1nnc2n1-c1sc3c(c1C(c1ccccc1Cl)=NC2)C[C@H](C(=O)N1CCOCC1)C3,-1.51 °C,0.59 °C
O=C(NCc1ccc(F)cc1)C1CCN(S(=O)(=O)c2cc(Cl)cc(Cl)c2)CC1,-1.81 °C,0.9 °C
COc1cc(-c2cc3ncccc3c(OC[C@H]3CNC(=O)C3)n2)cc(OC)c1OC1CCOCC1,-1.09 °C,1.16 °C
COc1cc2c(cc1CC=C(C)C)C(=O)C[C@@H](c1ccc(O)cc1)O2,1.25 °C,2.85 °C
OC(c1ccc(-c2ccc(CN3CCN(Cc4ccncc4)CC3)cc2)c(F)c1)(C(F)(F)F)C(F)(F)F,-2.07 °C,0.64 °C

# — ChEMBL document CHEMBL5308504, “Tm Shift (DSF) assay results for EUbOPEN Chemogenomics Library” (2023)
